From PMC9501014, “Amaryllidaceae-Type Alkaloids from Pancratium maritimum: Apoptosis-Inducing Effect and Cell Cycle Arrest on Triple-Negative Breast Cancer Cells” (Molecules, 2022)

Key:
MCF12A cells = test: Sulforhodamine B antiproliferative assay, non-tumorigenic breast MCF12A; assay type: cell-based; details: Homo sapiens, MCF-12A, 48 h of treatment, read-out: IC50 MCF12A (D)
Description: The antiproliferative effect of the isolated compounds (1–11) was investigated by the sulforhodamine B assay against human triple-negative breast cancer cell lines (MDA-MB-468 and MDA-MB-231) and breast ductal carcinoma cells (MCF-7) and the non-tumorigenic fibroblast (HFF-1) and breast cell lines (MCF12A). The IC50 values were determined after 48 h of treatment (Table 1).
Human breast adenocarcinoma MDA-MB-231, MDA-MB-468, and MCF-7 cell lines and non-tumorigenic foreskin fibroblast (HFF-1) and breast (MCF12A) cell lines were purchased from American Type Culture Collection (ATCC, Rockville, MD, USA). All cancer cell lines, except MCF12A, were routinely cultured in RPMI-1640 medium with glutamine from Corning (VWR, Carnaxide, Portugal) supplemented with 10% fetal bovine serum (FBS) from Biowest (Labclinics, Barcelona, Spain). MCF12A cells were cultured in a 1:1 mixture of Dulbecco’s modified Eagle’s medium and Ham’s F12 medium, 20 ng/mL human epidermal growth factor, 100 ng/mL cholera toxin, 0.01 mg/mL bovine insulin, and 500 ng/mL hydrocortisone and supplemented with 10% FBS. All cells were maintained in a humidified incubator at 37 °C with 5% CO2. All cells were routinely tested for mycoplasma contamination using the MycoAlertTM PLUS detection kit (Lonza, Basel, Switzerland).
Human cell lines were seeded in 96-well plates at a density of 5.0 × 10^3 (MDA-MB-231, MCF-7, HFF-1, and MCF12A) and 7.5 × 10^3 (MDA-MB-468) cells/well and allowed to adhere for 24 h. Cells were treated with serial dilutions of compounds (ranging from 0.1 to 40 μM) for an additional 48 h. Effect on cell proliferation was measured by sulforhodamine B assay, as described in [33], and the half-maximal inhibitory concentration (IC50) was then determined for each cell line using the GraphPad Prism software version 7.0 (La Jolla, CA, USA).

MDA-MB-231 cells [1] = test: Cell cycle analysis by flow cytometry (PI); assay type: cell-based, human; details: 16 µM (2 × IC50), vs vehicle control; 24 h / 48 h
Description: To explore the ability of compound 7 to regulate cell cycle progression, the percentage of cells in different phases was analyzed after 24 h of exposure.
(§1) Figure 2 Compound 7 induced cell cycle arrest, apoptosis, and ROS production, in MDA-MB-231 cells. […] (B) Effect of 16 µM of compound 7 on cell cycle progression after 48 h of treatment in MDA-MB-231 cells; the percentage of cells in each phase of the cell cycle was analyzed by flow cytometry, using PI; data are mean ± SEM of three independent experiments. […] (C) Effect of 16 µM of compound 7 on apoptosis after 48 h of treatment; the percentage of Annexin-positive cells was analyzed by flow cytometry using PI and Annexin-V staining; data are mean ± SEM of three independent experiments. […] (F) The graph represents the quantification of protein expression levels relative to DMSO; data are mean ± SD of three independent experiments. The ability of compound 7 to induce apoptosis in this cell line was also assessed by cytometry, using the Annexin V-FITC assay after 48 h of treatment. […]
(§2) The analyses were performed basically as described in [33]. […] The cells were then analyzed by flow cytometry, and cell cycle phases were identified and quantified using the FlowJo × 10.0.7 Software (Treestar, Ashland, OR, USA). […]

MDA-MB-231 cells [2] = test: Annexin V-FITC apoptosis assay; assay type: cell-based, human; details: 16 µM, 48 h, vs vehicle control
Description: Figure 2 Compound 7 induced cell cycle arrest, apoptosis, and ROS production, in MDA-MB-231 cells. […] (B) Effect of 16 µM of compound 7 on cell cycle progression after 48 h of treatment in MDA-MB-231 cells; the percentage of cells in each phase of the cell cycle was analyzed by flow cytometry, using PI; data are mean ± SEM of three independent experiments. […] (C) Effect of 16 µM of compound 7 on apoptosis after 48 h of treatment; the percentage of Annexin-positive cells was analyzed by flow cytometry using PI and Annexin-V staining; data are mean ± SEM of three independent experiments. […] (D) Effect of 16 µM of compound 7 on mitochondrial ROS generation after 24 h of treatment; data are mean ± SEM of three independent experiments (* p < 0.05, unpaired Student’s t-test). […] (F) The graph represents the quantification of protein expression levels relative to DMSO; data are mean ± SD of three independent experiments. The ability of compound 7 to induce apoptosis in this cell line was also assessed by cytometry, using the Annexin V-FITC assay after 48 h of treatment. […]
as §2

MDA-MB-231 cells [3] = test: Mitochondrial ROS generation (MitoSOX); assay type: cell-based, human; details: 16 µM, 24 h
Description: as §1
For mitochondrial ROS generation assessment, MDA-MB-231 cells were seeded in 6-well plates at a density of 1.5 × 10^5 cells/well for 24 h, followed by treatment with 16 µM of compound 7 for an additional 24 h. Thereafter, cells were incubated with 3 μM MitoSOX (Thermo Fisher Scientific, Invitrogen, Portugal) for 30 min at 37 °C and analyzed by flow cytometry.

What does the source list for `COc1cc2c(cc1O)C(=O)OC1[C@@H](O)C=C3CCN(C)C3[C@]21O` (stereo partly drawn) [Compound 7, 2α-10bα-dihydroxy-9-O-demethylhomolycorine]?
IC50 (MCF12A cells): 5.6 ± 0.8 µM; cell cycle progression (MDA-MB-231 cells [1]): significant accumulation of cells in the G2/M phase; percentage of apoptotic (Annexin-positive) cells (MDA-MB-231 cells [2]): significant increase in the percentage of apoptotic cells; mitochondrial ROS production (MDA-MB-231 cells [3]): increased ROS production
